From patent US20050100903A1, “Screening method” (priority 2001, published 2005)

Key:
HT29 cells = assay: Apoptosis in HT29 cells with or without γ-interferon stimulation, with antibody cross-linking; type: cell-based, human; details: addition over a short period (500 U/ml, 6 hours)
Experimental: HT29 cells were treated for 6 hours with 500 U/ml γ-interferon. The procedure was also run without interferon stimulation. After change of medium, the cells were treated with primary antibodies as in Example 4. These were: mAb 4D1C2 (anti-CEACAM-1 at 4 μg/ml) or irrelevant mAb 7D11 (anti-β-catenin at 1 μg/ml). A test run without antibody was used as a second negative control.
After medium change, secondary antibody (anti-mouse at 15 μg/ml) was added. After a total experiment duration of 80-96 hours, the level of apoptosis was determined using standard propidium iodide staining or the apoptosis ELISA of ROCHE Molecule Systems, strictly in accordance with the instructions of the manufacturer. All experiments were performed in triplicate and repeated 3× independently. The Wilcoxon signed ranks test was used to assess the significance of the data.

[1] = test system: CEACAM-1 expression in HT29 cells; assay: Western Blot of CEACAM expression in HT29 colon carcinoma cells; type: cell-based, human; details: HT29, 10 ng/ml, 6 hours
Experimental: HT29 colon carcinoma cells were incubated for 6 hours with TNF-α (10 ng/ml). The cells were examined microscopically for vitality, then lysed, their total protein isolated and separated electrophoretically. 8 μg protein was separated per lane. An anti-CEA antibody and an anti-mouse-HRP-coupled secondary antibody (Dianova, Hamburg, Germany) were used for detection. A cross-reacting anti-CEA antibody was chosen to investigate the selectivity of candidate substances for the expression of individual antigens. The selectivity of the substance effects is important since CEACAM-1 and CEACAM-7/CEA and CEACAM-6 can have antagonistic effects on apoptosis.
The proportionality of expression of individual CEACAMs can be quantified in Western Blot after densitometric evaluation (e.g., public domain NIH software IMAGE 1.6.1). The antigens are identified in the Western Blot through assignment to relative molar mass. The molecular size of the individual CEACAMs is described in the literature. The Western Blot was normalized with β-actin (Sigma-Aldrich, Taufkirchen, Germany). This blot (FIG. 6) was subsequently evaluated densitometrically using the NIH Image Software 1.6.1.
200 nM wortmannin (Calbiochem-Novabiochem, Nottingham, UK) was incubated with 1×10^6 cells/well (6-well plate) for 3, 8 or 24 hours. […]

Row | Substance | CEACAM-1 production in HT29 cells (HT29 cells) | Influence on other proteins of the CEACAM family [1] | Upregulation of CEACAM-1 compared to the untreated sample ([1]; densitometry of Western Blot normalized with β-actin)
1 | gamma-interferon: gamma-interferon, stimulates HT29 cells to produce CEACAM-1 | stimulates | – | –
2 | TNF-α | – | without influencing | approximately 2 fold
